Several values for one entry are separate records, joined by “and”; a condition that tells them apart may be missing. Equal values may be shown once. Read-outs that look alike come from different tables or passages of the source.
Key:
[1] = test system: rat and human plasma; assay: Competitive equilibrium dialysis, rat versus human plasma; assay type: in vitro ADME, Sprague-Dawley rat; settings: 37°C, n = 5
Protocol: (§1) A comparison of the binding to plasma from different species was performed essentially by the method described below. Briefly, [^3H] MBX-102 acid spiked plasma samples were formulated as described above with the exception that pH was not adjusted to 7.4 and the final DMSO concentration was 0.6%. A 1 mL sample of spiked human plasma was applied to one side of the dialysis membrane and 1 mL of spiked animal plasma was applied to the other side. The samples were dialyzed by rotation at 20 rpm for up to 120 hours in a 37°C incubator. The ratio of free drug in plasma was calculated according to the equation: ratio of free drug (animal versus human) = (total cpm in human plasma)/(total cpm in animal plasma).

[2] = test system: mouse and human plasma; assay: Competitive equilibrium dialysis, mouse versus human plasma; assay type: in vitro ADME, CD-1 mouse; settings: 37°C, n = 5
Protocol: as §1

[3] = test system: human alpha-1-acid glycoprotein; assay: Equilibrium dialysis binding to purified human alpha-1-acid glycoprotein; assay type: in vitro ADME; settings: purified human alpha-1-acid glycoprotein 22.5 μM, data not shown
Protocol: Stock solutions of human serum albumin and alpha-1-acid glycoprotein were prepared in PBS buffer. […] The spiked protein solution (175 μL) was added to one side of an equilibrium dialysis chamber, and an equal volume of PBS buffer was added to the other chamber. Dialysis was allowed to reach equilibrium and the binding to protein was determined by liquid scintillation counting of samples from both chambers as described above.

[4] = molecular target: T1, human PPAR-γ ligand-binding domain (Homo sapiens, UniProt P37231); assay: Lanthascreen TR-FRET NCOR corepressor displacement assay; assay type: biochemical; settings: for IC50: 3 experiments, mean ± SD, read-out: IC50 displacement of NCOR corepressor peptide
T1 construct: GST-PPARγ-LBD (5 nM), Tb-labeled anti-GST antibody (5 nM); purchased Invitrogen
T1 sequence (P37231 238-503 limits assumed): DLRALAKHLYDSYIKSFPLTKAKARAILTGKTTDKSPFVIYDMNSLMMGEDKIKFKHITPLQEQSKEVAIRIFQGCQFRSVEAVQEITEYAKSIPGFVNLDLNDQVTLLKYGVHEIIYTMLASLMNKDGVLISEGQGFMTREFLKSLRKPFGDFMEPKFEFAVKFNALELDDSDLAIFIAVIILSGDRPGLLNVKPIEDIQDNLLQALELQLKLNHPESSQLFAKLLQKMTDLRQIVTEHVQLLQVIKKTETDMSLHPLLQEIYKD
Protocol: Assays were performed according to the manufacturer’s instructions. […] Life Science, Lowell, Mass, USA). […] The plate was covered and incubated for 4 hours at room temperature. The time resolved fluorescence resonance energy transfer (TR-FRET) signal was measured using a Pherastar fluorescence counter (BMG labtech, Offenburg, Germany). The ratio of the emission intensity of the acceptor (Fluorescein: λ = 520 nm) divided by the emission intensity of the donor (Tb: λ = 490 nm) was then calculated to determine the degree of NCOR binding. Each measurement was performed in quadruplicate.

[5] = molecular target: T2, mouse serum albumin (Mus musculus, UniProt P07724); assay: Albumin binding by surface plasmon resonance (SPR), MSA
T2 construct: purchased Sigma
Protocol: The characterization of the binding of MBX-102 acid against human, mouse, and rat albumin was performed using SPR-based biosensors (Biosensor Tools, Salt Lake City, Utah, USA). The assay methods used to assess the binding of MBX-102 acid to human, mouse, and rat albumins have been described previously. Briefly, each albumin was immobilized onto a CM5 sensor chip using standard amine coupling. Immobilization densities were between 10 000 and 13 000 RU. […] Each of the 16 different concentrations was tested in duplicate. […] All binding data were collected at 37°C. The binding response profile of MBX-102 acid over the three different albumin surfaces was evaluated and the binding constants for the high-affinity site were determined using a two-independent-site model. Conversion from KD to %bound was performed as previously described.

[6] = Plasma protein binding by equilibrium dialysis, rat plasma; assay type: in vitro ADME, Sprague Dawley rats; settings: Sprague Dawley, equilibrium dialysis vs PBS, 37°C, read-out: %Protein Binding ± SD (converted)
Protocol: (§2) Radiolabeled MBX-102 acid was prepared as a 1 mL ethanol solution at a concentration of 50 μM (1 mCi total). […] Final solvent concentrations were 1% of the total volume. Plasma was stored at −20°C. Prior to use, it was thawed and spun at approximately 2000 rpm for 5 minutes to remove any precipitated material. The pH was adjusted to pH 7.4 by careful addition of NaH2PO4. A 1 mL sample of spiked plasma was prepared by direct dilution of [^3H]-MBX-102 acid stock solution into plasma and then added to one side of an equilibrium dialysis chamber. The other chamber was filled with 1 mL of 0.01 M phosphate buffered saline (PBS). The dialysis apparatus was placed in a water bath at 37°C and rotated at 20 rpm. […] Once equilibrium was established, the contents of the cell chambers were removed and analyzed by liquid scintillation counting. The chambers were sampled in triplicate. […] The recovery percentage was found not to vary with MBX-102 acid concentration.

[7] = Plasma protein binding by equilibrium dialysis, mouse plasma; assay type: in vitro ADME, CD-1 mice; settings: CD-1, pH 7.4, MBX-102 acid 400 μM, equilibrium dialysis vs PBS, 37°C, read-out: %Protein Binding ± SD (converted)
Protocol: as §2

T2 sequence (P07724 25-608): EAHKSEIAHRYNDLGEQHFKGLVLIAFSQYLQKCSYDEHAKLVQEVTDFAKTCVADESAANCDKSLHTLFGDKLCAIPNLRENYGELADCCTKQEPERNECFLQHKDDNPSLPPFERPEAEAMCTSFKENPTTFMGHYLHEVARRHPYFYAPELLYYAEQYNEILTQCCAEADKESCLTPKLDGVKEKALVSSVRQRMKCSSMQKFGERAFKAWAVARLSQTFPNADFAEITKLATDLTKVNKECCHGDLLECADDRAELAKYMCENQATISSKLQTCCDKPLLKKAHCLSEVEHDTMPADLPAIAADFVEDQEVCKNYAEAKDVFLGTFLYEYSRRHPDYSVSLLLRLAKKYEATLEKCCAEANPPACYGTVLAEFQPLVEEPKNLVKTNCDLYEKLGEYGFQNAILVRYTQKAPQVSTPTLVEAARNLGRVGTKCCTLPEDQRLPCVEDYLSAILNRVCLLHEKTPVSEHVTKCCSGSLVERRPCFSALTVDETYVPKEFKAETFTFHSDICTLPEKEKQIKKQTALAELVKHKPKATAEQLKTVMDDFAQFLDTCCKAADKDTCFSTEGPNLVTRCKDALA

In the case of O=C(O)[C@H](Oc1cccc(C(F)(F)F)c1)c1ccc(Cl)cc1 (stereo in doubt) [MBX-102 acid], the “Free Fraction Ratio Rat:Human” value ([1]; MBX-102 acid 100 μM) is reported as 2.3 ± 0.6, the “Free Fraction Ratio Rat:Human” value ([1]; MBX-102 acid 300 μM) is reported as 2.3 ± 0.6 and the “Free Fraction Ratio Rat:Human” value ([1]; MBX-102 acid 700 μM) is reported as 2.0 ± 0.3. The “Free Fraction Ratio Rat:Human” value ([1]; MBX-102 acid 1000 μM) was 1.8 ± 0.2, the “Free Fraction Ratio Rat:Human” value ([1]; MBX-102 acid 1300 μM) was 1.7 ± 0.2 and the “Free Fraction Ratio Mouse:Human” value ([2]; MBX-102 acid 100 μM) was 10.5 ± 5.5. The “Free Fraction Ratio Mouse:Human” value ([2]; MBX-102 acid 300 μM) was 5.9 ± 3.6, the “Free Fraction Ratio Mouse:Human” value ([2]; MBX-102 acid 700 μM) was 3.7 ± 1.9 and the “Free Fraction Ratio Mouse:Human” value ([2]; MBX-102 acid 1000 μM) was 2.6 ± 1.1. The “Free Fraction Ratio Mouse:Human” value ([2]; MBX-102 acid 1300 μM) was 2.3 ± 0.7, the “binding to human alpha 1-acid glycoprotein” value [3] was less than 5% and the IC50 ([4]; 0% serum) was 11 µM and 10.6 µM. The IC50 ([4]; 10% (v/v) human serum) was 98.5 ± 6.6 µM, the IC50 ([4]; 40% (v/v) human serum) was 200 ± 6.4 µM and the IC50 ([4]; 40% (v/v) mouse serum) was 28.1 ± 2.6 µM. For the same compound, the IC50 ([4]; 40% (v/v) rat serum) was 57.9 ± 14.2 µM, the “fold shift in the IC50” value ([4]; 40% human serum versus no serum) was no more than 19 fold and the “FC, IC50 fold change human-to-mouse serum” value ([4]; 40% serum) was 7 and 7.17. The “FC, IC50 fold change human-to-rat serum” value ([4]; 40% serum) was 4 and 3.59, the “%Bound” value ([5]; converted from KD) was 99.2% and the Kd ([5]; high-affinity site, two-independent-site model, 37°C, pH 7.4) was 5.5 µM. The fraction unbound at 400 µM ([6]; pH 7.4, MBX-102 acid 400 μM) was 0.002, the fraction unbound at 600 µM ([6]; pH 7.4, MBX-102 acid 600 μM) was 0.002 and the fraction unbound at 1000 µM ([6]; pH 7.4, MBX-102 acid 1000 μM) was 0.003. It also gave a fraction unbound at 1500 µM ([6]; pH 7.4, MBX-102 acid 1500 μM) of 0.002, a fraction unbound at 2000 µM ([6]; pH 7.4, MBX-102 acid 2000 μM) of 0.005 and a fraction unbound at 400 µM [7] of 0.002.
